Assay results: ChEMBL document CHEMBL3044985, “Novel antitubercular diallyl/dibenzylthiosemicarbazones endowed with high activity toward multi-drug-resistant tuberculosis” (Med Chem Res, 2012)
≈ marks a conversion by molar mass, not a printed value.

Test system: not listed separately
Test: Selectivity index, ratio of CC50 for african green monkey Vero cells to MIC for multidrug-resistant Mycobacterium tuberculosis
Assay type: toxicity, cell-based
Settings: read-out: Selectivity Index
Compound `O=[N+]([O-])c1ccc(/C=N\NC(=S)N(Cc2ccccc2)Cc2ccccc2)o1` has a selectivity ratio of 1320.

Test system: Mycobacterium tuberculosis
Test: Ratio of ethambutol MIC to compound MIC for multidrug-resistant Mycobacterium tuberculosis
Assay type: functional
Settings: not given
With `O=[N+]([O-])c1ccc(/C=N\NC(=S)N(Cc2ccccc2)Cc2ccccc2)o1` the Ratio was 314.

Test system: Mycobacterium tuberculosis
Test: Ratio of ofloxacin MIC to compound MIC for multidrug-resistant Mycobacterium tuberculosis
Assay type: functional
Settings: not given
Work on `O=[N+]([O-])c1ccc(/C=N\NC(=S)N(Cc2ccccc2)Cc2ccccc2)o1` yielded a Ratio of 288.

Test system: Mycobacterium tuberculosis
Test: Ratio of rifampicin MIC to compound MIC for multidrug-resistant Mycobacterium tuberculosis
Assay type: functional
Settings: not given
In the case of `O=[N+]([O-])c1ccc(/C=N\NC(=S)N(Cc2ccccc2)Cc2ccccc2)o1`, the Ratio is reported as 31.

Test system: Mycobacterium tuberculosis
Test: Ratio of isoniazid MIC to compound MIC for multidrug-resistant Mycobacterium tuberculosis
Assay type: functional
Settings: not given
`O=[N+]([O-])c1ccc(/C=N\NC(=S)N(Cc2ccccc2)Cc2ccccc2)o1` showed a Ratio of 379.

Test system: Mycobacterium tuberculosis
Test: Antitubercular activity against multidrug-resistant Mycobacterium tuberculosis by NCCLS agar dilution method
Assay type: functional
Settings: not given
Compound `S=C(NN=C(c1ccccc1)c1ccccc1)N(Cc1ccccc1)Cc1ccccc1` has an MIC of 1.79 µM (≈ 0.78 µg/mL). Work on `O=[N+]([O-])c1ccc(/C=N\NC(=S)N(Cc2ccccc2)Cc2ccccc2)cc1` yielded an MIC of 0.98 µM (≈ 0.396 µg/mL). For `C=CCN(CC=C)C(=S)N/N=C\c1ccc(Cl)cc1`, the MIC was 2.65 µM (≈ 0.779 µg/mL). For `S=C(N/N=C\c1ccc(Cl)cc1)N(Cc1ccccc1)Cc1ccccc1`, the MIC was 1.98 µM (≈ 0.78 µg/mL). For `C=CCN(CC=C)C(=S)N/N=C\c1ccccc1C`, the MIC was 5.7 µM (≈ 1.56 µg/mL). Work on `Cc1ccccc1/C=N\NC(=S)N(Cc1ccccc1)Cc1ccccc1` yielded an MIC of 4.71 µM (≈ 1.76 µg/mL). For `Oc1ccccc1/C=N\NC(=S)N(Cc1ccccc1)Cc1ccccc1`, the MIC was 4.16 µM (≈ 1.56 µg/mL). `C=CCN(CC=C)C(=S)N/N=C\c1ccc([N+](=O)[O-])o1` showed an MIC of 0.67 µM (≈ 0.197 µg/mL). In the case of `O=[N+]([O-])c1ccc(/C=N\NC(=S)N(Cc2ccccc2)Cc2ccccc2)o1`, the MIC is reported as 0.12 µM (≈ 0.0473 µg/mL). For `C=CCN(CC=C)C(=S)N/N=C(/C)c1ccccc1`, the MIC was 11.4 µM (≈ 3.13 µg/mL). `C/C(=N/NC(=S)N(Cc1ccccc1)Cc1ccccc1)c1ccccc1` showed an MIC of 4.17 µM (≈ 1.56 µg/mL). `C=CCN(CC=C)C(=S)N/N=C(/C)c1ccccc1O` gave an MIC of 10.8 µM (≈ 3.13 µg/mL). `C/C(=N/NC(=S)N(Cc1ccccc1)Cc1ccccc1)c1ccccc1O` gave an MIC of 8.03 µM (≈ 3.13 µg/mL). `C=CCN(CC=C)C(=S)N/N=C(/C)c1ccc(O)cc1` showed an MIC of 10.8 µM (≈ 3.13 µg/mL). With `C/C(=N/NC(=S)N(Cc1ccccc1)Cc1ccccc1)c1ccc(O)cc1` the MIC was 8.03 µM (≈ 3.13 µg/mL). Work on `C/C(=N/NC(=S)N(Cc1ccccc1)Cc1ccccc1)c1ccc(N)cc1` yielded an MIC of 8.04 µM (≈ 3.12 µg/mL). With `C=CCN(CC=C)C(=S)N/N=C(/C)c1ccc([N+](=O)[O-])cc1` the MIC was 9.83 µM (≈ 3.13 µg/mL). For `C/C(=N/NC(=S)N(Cc1ccccc1)Cc1ccccc1)c1ccc([N+](=O)[O-])cc1`, the MIC was 1.86 µM (≈ 0.778 µg/mL). In the case of `C=CCN(CC=C)C(=S)N/N=C(/C)c1ccc(F)cc1`, the MIC is reported as 5.35 µM (≈ 1.56 µg/mL). Work on `C/C(=N/NC(=S)N(Cc1ccccc1)Cc1ccccc1)c1ccc(F)cc1` yielded an MIC of 3.98 µM (≈ 1.56 µg/mL). In the case of `C=CCN(CC=C)C(=S)NN=C(c1ccccc1)c1ccccc1`, the MIC is reported as 2.32 µM (≈ 0.778 µg/mL). `S=C(N/N=C\c1ccccc1)N(Cc1ccccc1)Cc1ccccc1` gave an MIC of 8.71 µM (≈ 3.13 µg/mL). `C=CCN(CC=C)C(=S)N/N=C\c1ccccc1[N+](=O)[O-]` gave an MIC of 2.56 µM (≈ 0.779 µg/mL). `O=[N+]([O-])c1ccccc1/C=N\NC(=S)N(Cc1ccccc1)Cc1ccccc1` showed an MIC of 0.98 µM (≈ 0.396 µg/mL). Work on `C=CCN(CC=C)C(=S)N/N=C\c1ccc([N+](=O)[O-])cc1` yielded an MIC of 1.31 µM (≈ 0.399 µg/mL). `CC[C@@H](CO)NCCN[C@@H](CC)CO` [ETHAMBUTOL] showed an MIC of 37.7 µM (≈ 7.7 µg/mL). For `NNC(=O)c1ccncc1` [ISONIAZID], the MIC was 45.6 µM (≈ 6.25 µg/mL). For `CO[C@H]1/C=C/O[C@@]2(C)Oc3c(C)c(O)c4c(O)c(c(/C=N/N5CCN(C)CC5)c(O)c4c3C2=O)NC(=O)/C(C)=C\C=C\[C@H](C)[C@H](O)[C@@H](C)[C@@H](O)[C@@H](C)[C@H](OC(C)=O)[C@@H]1C` [RIFAMPIN], the MIC was 3.79 µM (≈ 3.12 µg/mL).
